Assay results as given in patent EP2340832A1, “Morphinan-6-one compounds for the treatment or prevention of neurodegenerative diseases” (Universität Innsbruck, priority 2009, dated 2011).

Target: µ opioid receptor (Rattus norvegicus, UniProt P33535)
Test: [35S]GTPγS functional assay, rat brain membranes, µ receptor
Format: biochemical, Sprague-Dawley rat
Design: Membrane fractions were prepared from Sprague-Dawley rat or guinea pig brains; from tissue; host or cells: Sprague-Dawley rat brain (without cerebella) membranes
Method: Membrane fractions were prepared from Sprague-Dawley rat or guinea pig brains as described above. To determine binding of [^35S]GTPyS, rat or guinea pig brain membranes (10 µg of protein) were incubated for 60 min at 30 °C in Tris-EGTA buffer (50 mM Tris-HCl buffer, 3 mM MgCl2, 1 mM EGTA, […], pH 7.4) containing 30 µM GDP, 0.05 nM [^35S]GTPyS and appropriate concentrations of the respective compounds according to the present invention in a final volume of 1 ml. The reaction was terminated by vacuum filtration through Whatman GF/B glass fibre filters. Filters were washed three times with ice-cold 50 mM Tris-HCI buffer (pH 7.4) and the bound radioactivity was measured by liquid scintillation counting (Beckman Coulter™ LS6500). Basal activity was determined by subtracting the non-specific binding (measured in the presence of 100 µM unlabelled GTPyS) from the total binding (measured in the absence of the compound).
Stimulation produced by the compound is given as percentage of the basal activity (given as 100%). Functional data, EC50 (nM; half maximal effective concentration) and maximal stimulation Emax (% stimulation over basal level; maximal effective concentration), were calculated by using nonlinear regression analysis and sigmoidal curve fitting GraphPad Prism (San Diego, CA, USA) program. The values are expressed as the mean ± S.E.M of at least 3 independent experiments, each performed in triplicate. Statistical analysis was carried out using SPSS software (SPSS Inc., Chicago, lL, USA) and the Student T-test was used to compare different assay conditions. A ρ value < 0.05 was considered statistically significant.

µ opioid receptor, sequence (P33535 whole entry): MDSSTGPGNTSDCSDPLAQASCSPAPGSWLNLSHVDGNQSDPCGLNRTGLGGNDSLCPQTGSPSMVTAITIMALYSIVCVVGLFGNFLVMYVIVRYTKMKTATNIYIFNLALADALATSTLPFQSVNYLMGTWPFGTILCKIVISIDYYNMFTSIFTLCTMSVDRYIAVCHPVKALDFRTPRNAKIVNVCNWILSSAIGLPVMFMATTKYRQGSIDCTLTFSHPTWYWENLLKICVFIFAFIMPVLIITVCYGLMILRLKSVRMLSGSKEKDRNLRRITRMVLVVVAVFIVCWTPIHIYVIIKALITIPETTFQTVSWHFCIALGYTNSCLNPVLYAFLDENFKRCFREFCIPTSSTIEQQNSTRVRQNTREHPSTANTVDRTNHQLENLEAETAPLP

C=CCN1CC[C@]23CC(=O)CC[C@H]2[C@H]1Cc1cccc(OC)c13 [Compound 4, 4-methoxy-N-allylmorphinan-6-one]
function at the µ opioid receptor: antagonistic function | [35S]GTPγS binding on co-incubation with cyprodime versus antagonist alone (10 µM each, rat brain membranes): did not produce any significant increase | effect on [35S]GTPγS binding stimulated by DAMGO (compound 10 µM, DAMGO 10 µM, rat brain membranes): significantly decreased | [35S]GTPγS binding in the presence of the compound alone (rat brain membranes, compared with DAMGO): no increase
